Results taken from patent US8975259B2, “Compositions and methods for inhibiting G protein signaling” (University of Rochester, priority 2007, dated 2015).
Entries after “also recorded” stand apart in the source; their conditions may differ.

How the values were obtained:
[1] = test system: fMLP-dependent Ca2+ release in differentiated HL60 cells; test: fMLP-dependent Ca2+ release in fura-2 loaded DMSO-differentiated HL60 cells; assay type: cell-based, human; details: 10 μM compound, 250 nM fMLP, result in words
Method: (§1) Cells were pretreated with DMSO or 10 μM compounds for 5 min prior to stimulation with 250 nM fMLP. […] Normalized peak Ca^2+ responses were pooled from three independent experiments each (mean±SEM). Cells were pretreated with DMSO (▪) or compounds (▴) for 5 min prior to stimulation. FIG. 5C is the same as A except 10 μM M201 was tested. […] Differentiated HL60 cells were treated with 10 μM compound prior to stimulation with 250 nM fMLP. Translocation of endogenous GRK2 was determined by Western blotting with a GRK2 antibody and quantitative chemiluminescence. Data are mean±SEM from 5 experiments, * P<0.05, **P<0.01 ANOVA. […] Differentiated HL60 cells stably over-expressing GFP-PHAkt were treated with 10 μM compound prior to stimulation with 100 nM fMLP. Translocation of GFP-PHAkt to the membrane was determined by Western blotting with an anti-GFP antibody and quantitative chemiluminescence. Data are mean±SEM from 4 experiments. *** P<0.001 ANOVA. […] Differentiated HL60 cells were pretreated with 10 μM of compound prior to stimulation with 1 μM fMLP for 5 min. Levels of phosphorylated and total ERK were determined by Western blotting.
Ca^2+ fluxes were measured using two 35 mL cultures of differentiated HL-60 neutrophil cultures (0.2×10^6 cells/mL). Cells were cultured for three days with in DMSO
(1.2%), washed in HSS and resuspended in 2 mL HBSS at a concentration of 7×10^s cells/mL. Addition of DMSO to the growth medium induces differentiation of these cells into morphologically and functionally mature neutrophils
(Collins, et al. (1978) Proc. Natl. Acad. Sci. USA 75:2458; Collins, et al. (1979) J. Exp. Med. 149:969). Neutrophils were preloaded with fura-2 (1 μM), a fluorescent Ca^2+-sensitive indicator (Suh, et al. (1996) J. Biol. Chem. 271:32753), for 45 minutes, washed with HBSS and resuspended in 2 mL of indicator-free HBSS. An 140 μL aliquote of cells was added to a total of 2 mL HBSS. Fluorescence ratios were taken by dual excitation at 340 and 380 nm and emission at 510 nm. After a stable baseline was established, either DMSO or NSC119910 was added and incubated for 5 minutes. […]

[2] = test system: ATP-dependent Ca2+ increase in differentiated HL-60 neutrophils; test: ATP-dependent Ca2+ increase in differentiated HL-60 neutrophils; assay type: cell-based, human; details: result in words
Method: (Collins, et al. (1978) Proc. Natl. Acad. Sci. USA 75:2458; Collins, et al. (1979) J. Exp. Med. 149:969). Neutrophils were preloaded with fura-2 (1 μM), a fluorescent Ca^2+-sensitive indicator (Suh, et al. (1996) J. Biol. Chem. 271:32753), for 45 minutes, washed with HBSS and resuspended in 2 mL of indicator-free HBSS. An 140 μL aliquote of cells was added to a total of 2 mL HBSS. Fluorescence ratios were taken by dual excitation at 340 and 380 nm and emission at 510 nm. After a stable baseline was established, either DMSO or NSC119910 was added and incubated for 5 minutes. Subsequently, either fMLP or ATP agonists were added to activate release of Ca^2+ from intracellular stores.

[3] = test system: GRK2 translocation in differentiated HL60 cells; test: fMLP-dependent GRK2 translocation to membrane in differentiated HL60 cells; assay type: cell-based, human; details: 10 μM compound, 250 nM fMLP; result in words
Method: as §1

[4] = test system: morphine-dependent antinociception in PLCβ3 −/− mice; test: 55° C. tail-flick antinociception in PLCβ3 −/− mice; assay type: in vivo, mouse; details: 100 nmol i.c.v.; result in words
[5] = test system: naloxone-precipitated morphine withdrawal in mice; test: Acute morphine physical dependence (naloxone-precipitated jumping); assay type: in vivo, mouse; details: morphine 100 mg/kg s.c. −4 hr; M119 100 nmol i.c.v. 30 min before naloxone 10 mg/kg i.p.
Method: Prior to the administration of naloxone (30 min) mice were injected with vehicle, i.c.v. Withdrawal was precipitated by an injection of the opioid antagonist, naloxone (10 mg/kg, i.p.). Mice were immediately placed in a clear cylinder and observed for 15 min. The number of vertical jumps was recorded during this time.

[6] = test system: GRK2 membrane recruitment in adult mouse cardiomyocytes; test: β-AR-mediated GRK2 membrane recruitment in isolated adult mouse cardiomyocytes; assay type: cell-based; details: result in words
Method: Thus, it was tested whether M119 could block GRK2 recruitment to membrane-bound Gβγ subunits upon agonist stimulation of β-AR in cardiomyocytes, similar to what had been observed in vitro with the peptide inhibitors described above. Indeed M119 reduced β-AR-mediated recruitment of GRK2 to membranes of isolated adult mouse cardiomyocytes, with a mild reduction of membrane associated GRK2 at baseline.

[7] = test system: cAMP generation in adult mouse cardiomyocytes; test: cAMP generation in isolated adult mouse cardiomyocytes; assay type: cell-based; details: 10 μM M119 5 min pre-treatment, 100 nM isoproterenol 15 min; result in words
Method: Isolated cardiomyocytes were treated with vehicle (V) or 100 nM isoproterenol (I) for 15 minutes in the presence or absence of a 5 minute pre-treatment with 10 μM M119 (M). Forskolin treatment, which directly activates adenylyl cyclase, was used as a control.

[8] = test system: isoproterenol-induced heart failure in mice; test: Isoproterenol mini-osmotic pump acute model of heart failure; assay type: in vivo, mouse; details: result in words
Method: Conscious echocardiography was performed on animals prior to sacrifice. % FS is a measure of cardiac contractility derived from end-diastolic and end-systolic diameters. […] Heart weight to body weight ratio (HW:BW) was assessed upon sacrifice of the animal. (n=7-8 per condition)
Immunoblot for GRK2 of equal amounts of total protein isolated from hearts of adult C57/B16 male mice following 1 week of either vehicle or Iso (30 mg/kg/day) delivered by miniosmotic pumps (Veh, . . . or Iso, . . . , respectively) and concurrent daily vehicle or M119 (100 mg/kg) daily injections ( . . . , Veh, or . . . , Cmpd, respectively).
Based on the positive cardiomyocyte data, the cardiac effects of M119 were tested in vivo. The NCI compound database and chemical library was originally assembled to investigate these compounds utilizing both a yeast high-throughput screening assay as well as in vivo compound delivery to mice for 1-2 weeks. […] Wild type mice were implanted with mini-osmotic pumps filled with either vehicle or the non-selective β-AR agonist isoproterenol. These pumps release a constant fluid volume, and 30 mg/kg/day of isoproterenol (Iso) has been used to attain pathologic cardiac hypertrophy and dysfunction in one week Immediately following mini-osmotic pump implantation of vehicle or Iso (30 mg/kg/day), mice from each group were injected intraperitoneal (IP) once daily with equal volumes of either vehicle or a moderate dose of M119 (100 mg/kg) for seven days. […] The Iso pumped animals indeed suffered a decrease of cardiac function coupled with pathologic hypertrophy.

[9] = 250 mg/kg/day for two weeks, delivered by the NCI; cited from earlier work
[10] = target: Gβ1γ2 (UniProt P54311+P63212); set-up: made in house; host or cells: Sf9 insect cells (baculovirus; co-expressed with BirA and (His)6-Gαi1, from which βγ was eluted); details: Table 20, competition ELISA for SIGK binding; data from Bonacci et al. (2006); cited from earlier work
Chain of Gβ1γ2 (P54311 whole entry): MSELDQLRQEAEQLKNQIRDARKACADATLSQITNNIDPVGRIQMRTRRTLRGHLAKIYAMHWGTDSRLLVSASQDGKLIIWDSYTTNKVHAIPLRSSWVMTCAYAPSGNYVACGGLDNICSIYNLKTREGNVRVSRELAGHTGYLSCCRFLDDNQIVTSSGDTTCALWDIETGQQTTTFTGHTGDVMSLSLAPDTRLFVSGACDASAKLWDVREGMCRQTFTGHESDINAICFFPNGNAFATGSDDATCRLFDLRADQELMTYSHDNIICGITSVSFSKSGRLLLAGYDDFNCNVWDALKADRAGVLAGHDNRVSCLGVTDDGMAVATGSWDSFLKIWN
Chain of Gβ1γ2 (P63212 2-68 limits assumed): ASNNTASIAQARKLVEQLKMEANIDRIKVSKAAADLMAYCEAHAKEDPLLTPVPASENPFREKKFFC

SMILES	effect on fMLP-induced Ca^2+ increase [1]	effect on fMLP-induced Ca^2+ increase ([1]; listed as NSC119910)	effect on ATP-induced [Ca^2+] increase [2]	effect on fMLP-dependent GRK2 translocation to the membrane fraction [3]	effect on morphine-dependent antinociception in PLCβ3 −/− mice [4]	number of vertical jumps in the 15-min counting period [5]	effect on β-AR-mediated recruitment of GRK2 to membranes [6]	effect on cAMP generation at baseline and with isoproterenol [7]	effect on interstitial cardiac fibrosis ([8]; Iso 30 mg/kg/day pump, M119 100 mg/kg IP daily, seven days)	effect on cardiac function and morphology in Iso pumped animals ([8]; Iso 30 mg/kg/day pump, M119 100 mg/kg IP once daily, seven days)	effect on GRK2 expression in the Iso HF model ([8]; M119 100 mg/kg IP daily)	effect of compound alone on cardiac function or morphology ([8]; vehicle pump, M119 100 mg/kg IP daily)	toxicity [9]	IC50 [10] [µM]
O=C(O)C1CCCCC1c1c2ccc(=O)c(O)c-2oc2c(O)c(O)ccc12 (centres unmarked) [Compound M119, cyclohexanecarboxylic acid, 2-(4,5,6-trihydroxy-3-oxo-3H-xanthen-9-yl)-(9cl)]	attenuated	suppressed; also recorded: block	not significantly suppressed	substantially inhibited	no effect	23±14	reduced	enhanced	reduction in interstitial cardiac fibrosis	near normalization of cardiac function and morphology	nearly normalized	no effect	no reported overt evidence of toxicity	–
O=C(O)C1CCCCC1c1c2ccc(=O)cc-2oc2cc(O)ccc12 (centres unmarked) [Compound M119B]	–	–	–	–	–	–	–	–	–	–	–	–	–	> 300
